Assay results: patent US20140205654A1, “LIPOSOMAL VANCOMYCIN FOR THE TREATMENT OF MRSA INFECTIONS” (CEDARS-SINAI MEDICAL CENTER, priority 2011, published 2014)
In brackets after ≈: the same amount, converted by molar mass.

Assays:
Assay type in all cases: cell-based
MRSA strain LAC [1] = test: MBC determination; conditions: Staphylococcus aureus, read-out: Vancomycin MBC
Procedure: (§1) The MICs of free and liposomal antibiotics for all strains were determined by the broth dilution technique. Briefly, serial dilutions of free- or liposome-encapsulated antibiotic from 20 to 0.3 μg/ml were prepared. For bacterial suspensions, frozen stocks of MRSA were streaked on sheep blood agar plates. Single colonies were inoculated into fresh media and shaken for 20 hr at 37° C. The overnight bacteria were diluted and added to 96-well plates (Becton Dickinson) to achieve an approximate concentration of 1×10^5. The inocula were confirmed by plating on agar. The 96-well plates were then incubated with or without shaking at 37° C., and the lowest concentration of antibiotic formulations that inhibited visible growth of bacteria was determined after 24 hours (MIC). Incubation of the plates with shaking (at 200 rpm) increased the consistency of MIC measurement for the liposomal preparations. For determination of MBC, the broths used for MIC determination were plated on agar, and the first dilution at which 99.9% of the original inocula were killed was identified. All MIC and MBC assays were performed at least three times.

MRSA strain NRS-35 [2] = test: MBC determination; conditions: Staphylococcus aureus, read-out: Vancomycin MBC
Procedure: as §1

MRSA 81 = test: MIC by broth dilution; conditions: Staphylococcus aureus, 24 h, read-out: Vancomycin MIC
Procedure: as §1

MRSA 83 = test: MIC by broth dilution; conditions: Staphylococcus aureus, 24 h, read-out: Vancomycin MIC
Procedure: as §1

MRSA strain LAC [3] = test: MIC by broth dilution; conditions: Staphylococcus aureus, 24 h, read-out: Vancomycin MIC
Procedure: as §1

MRSA 79 = test: MIC by broth dilution; conditions: Staphylococcus aureus, 24 h, read-out: Vancomycin MIC
Procedure: as §1

MRSA 82 = test: MIC by broth dilution; conditions: Staphylococcus aureus, 24 h, read-out: Vancomycin MIC
Procedure: as §1

MRSA strain ATCC 43300 = test: MIC by broth dilution; conditions: Staphylococcus aureus, 24 h, read-out: Vancomycin MIC
Procedure: as §1

MRSA 78 = test: MIC by broth dilution; conditions: Staphylococcus aureus, 24 h, read-out: Vancomycin MIC
Procedure: as §1

MRSA strain NRS-35 [4] = test: MIC by broth dilution; conditions: Staphylococcus aureus, 24 h, read-out: Vancomycin MIC
Procedure: as §1

MRSA 80 = test: MIC by broth dilution; conditions: Staphylococcus aureus, 24 h, read-out: Vancomycin MIC
Procedure: as §1

Structure (SMILES): CN[C@H](CC(C)C)C(=O)N[C@H]1C(=O)N[C@@H](CC(N)=O)C(=O)N[C@H]2C(=O)N[C@H]3C(=O)N[C@H](C(=O)N[C@H](C(=O)O)c4cc(O)cc(O)c4-c4cc3ccc4O)[C@H](O)c3ccc(c(Cl)c3)Oc3cc2cc(c3O[C@@H]2O[C@H](CO)[C@@H](O)[C@H](O)[C@H]2O[C@H]2C[C@](C)(N)[C@H](O)[C@H](C)O2)Oc2ccc(cc2Cl)[C@H]1O [Free Vancomycin, Vancomycin]
- MBC (MRSA strain LAC [1]): 2.5 µg/mL (≈ 1.73 µM)
- MBC (MRSA strain NRS-35 [2]): 2.5 to 5 µg/mL (≈ 1.73 to 3.45 µM)
- MIC (MRSA 81): 1.25 µg/mL (≈ 0.863 µM)
- MIC (MRSA 83): 1.25 µg/mL (≈ 0.863 µM)
- MIC (MRSA strain LAC [3]): 1.25 to 2.5 µg/mL (≈ 0.863 to 1.73 µM)
- MIC (MRSA 79): 1.25 µg/mL (≈ 0.863 µM)
- MIC (MRSA 82): 2.5 µg/mL (≈ 1.73 µM)
- MIC (MRSA strain ATCC 43300): 1.25 to 2.5 µg/mL (≈ 0.863 to 1.73 µM)
- MIC (MRSA 78): 1.25 µg/mL (≈ 0.863 µM)
- MIC (MRSA strain NRS-35 [4]): 2.5 µg/mL (≈ 1.73 µM)
- MIC (MRSA 80): 1.25 µg/mL (≈ 0.863 µM)
